Literature values, collected in patent US20020018777A1, “STERILIZATION OF VIRUS INFECTED PLASMA” (priority 1995, published 2002).

Conditions: concentrated BPL, animals

## O=C1CCO1 [BPL, β-propiolactone]
  carcinogenicity: carcinogenic
